Consider ten compounds from paper PMC9848351, “Discovery of new pyridine-quinoline hybrids as competitive and non-competitive PIM-1 kinase inhibitors with apoptosis induction and caspase 3/7 activation capabilities” (Journal of Enzyme Inhibition and Medicinal Chemistry, 2023).

The test system of series [1] is prostate cancer cell line (PC-3). Briefly: MTT anticancer activity, PC-3. The series is classed as cell-based, human. As to conditions: Homo sapiens, 72 h, PC-3, 72 h, mean ± SEM. The method, then: (§1) Anticancer effect of the above-mentioned compounds was evaluated using four human cancer cell lines. Colon cancer cells (Caco-2), myeloid leukaemia cell line (NFS-60), liver cancer cell line (HepG-2) and prostate cancer cell line (PC-3) using MTT method was used for assaying cell viability[26] (Supplementary Page S55).
(§2) All final compounds were evaluated against four human cancer cell lines namely; liver cancer (HepG2) (ATCC® HB-8065™), colon cancer (Caco-2) (ATCC® HTB-37™), leukaemia cancer (NFS-60) (ATCC® CRL-1838™), and prostate cancer (PC-3) (ATCC® CRL-1435™) using doxorubicin (Dox) as the reference drug being widely used in tumour management utilising microculture MTT assay, declared by Mosmann[26] (Table 1 in Supplementary Material, Figures 5–8). […]
(§3) MTT method was used for assaying cell viability 25. Twenty microliters of 5 mg/ml MTT (Sigma, USA) was added to each well and the plate was incubated at 37 °C for 3 h. Then MTT solution was removed, 100 µl DMSO was used and the absorbance of each well was measured with a microplate reader ( BMG LabTech, Germany) at 570 nm. The effective concentration (IC 50) and safe dose (EC100) values of the tested compounds that cause 50% and 100% cell viability were estimated by the Graphpad Instat software.
(§4) Determination of the anticancer activity
(§5) Anticancer effect of the above-mentioned compounds was evaluated using four human cancer cell lines. Colon cancer cells (Caco-2) were maintained in DMEM (Lonza, USA) containing 10% FBS while myeloid leukemia cell line (NFS-60), liver cancer cell line (HepG-2) and prostate cancer cell line (PC-3) were cultured in RPMI-1640 (Lonza, USA) supplemented with 10% FBS. All cancer cells (5x10^3 cells/well) were seeded in sterile 96-well plates. After 24h, serial concentrations of the tested compounds and Dox were incubated with four cancer cell lines for 72 h at 37 °C in 5% CO2 incubator. MTT method was done as described above. The Graphpad Instat software was used for calculating the half maximal inhibitory concentration (IC50) values. Furthermore, phase contrast inverted microscope with a digital camera (Olympus, Japan) was used for investigating […]
(§6) safest anticancer compounds. […]

Series [2] relates to Colon cancer cells (Caco-2). Briefly: MTT anticancer activity, Caco-2. The series is classed as cell-based, human. The conditions noted are these: for IC50: Homo sapiens, Caco-2, 72 h, MTT, mean ± SEM; for Caco-2 SI: selectivity index, Wi-38 versus Caco-2. As for the experimental part: as §1
All final compounds were evaluated against four human cancer cell lines namely; liver cancer (HepG2) (ATCC® HB-8065™), colon cancer (Caco-2) (ATCC® HTB-37™), leukaemia cancer (NFS-60) (ATCC® CRL-1838™), and prostate cancer (PC-3) (ATCC® CRL-1435™) using doxorubicin (Dox) as the reference drug being widely used in tumour management utilising microculture MTT assay, declared by Mosmann[26] (Table 1 in Supplementary Material, Figures 5–8).
(§7) Cytotoxicity of the tested compounds was evaluated using normal human lung fibroblast Wi-38 cell line compared to currently used anticancer drug (doxorubicin).
as §3, with “Firstly, Wi-38 cell line was subcultured in DMEM medium-contained 10% fetal bovine serum (FBS), then, seeded as 5x10^3 cells per well in 96-well cell culture plate and incubated at 37 °C in 5% CO 2 incubator. Serial concentrations of these compounds and doxorubicin (Dox) were incubat ed with Wi-38 cells for 72 h after 24 h for cell attachment. MTT method” for “MTT method”
as §4, §5, §6

Series [3] deals with liver cancer cell line (HepG-2). Briefly: MTT anticancer activity, HepG-2. The series is classed as cell-based, human. The conditions noted are these: Homo sapiens, HepG2; HepG-2, 72 h, MTT; mean ± SEM. The method, then:
as §1, §2, §3, §4, §5, §6

Series [4] deals with normal human lung fibroblast Wi-38 cell line. Briefly: MTT cytotoxicity on normal cells. The series is classed as cell-based. The conditions noted are these: Wi-38, 72 h, MTT, mean ± SEM; for EC50: Homo sapiens, 50% cell viability; for Wi-38 EC100: safe dose, 100% cell viability. As for the experimental part: Cytotoxicity of the tested compounds was evaluated using normal human lung fibroblast Wi-38 cell line compared to currently used anticancer drug (doxorubicin) using MTT method was used for assaying cell viability[26] (Supplementary Page S55).
Cytotoxicity test is one of the biological evaluations and screening tests that use human normal and cancer cells in-vitro to observe the effect of the studied compounds on their growth using MTT-based cytotoxicity. Microculture MTT method[26] was used to determine cytotoxic activity of the newly synthesised compounds against normal human lung fibroblast (Wi-38) using doxorubicin (Dox) as standard anticancer drug. The highest IC50 and EC100 values illustrate that the compounds were safe on the proliferation of normal human cells. […]. page 47:
as §7
as §3, with “Firstly, Wi-38 cell line was subcultured in DMEM medium-contained 10% fetal bovine serum (FBS), then, seeded as 5x10^3 cells per well in 96-well cell culture plate and incubated at 37 °C in 5% CO 2 incubator. Serial concentrations of these compounds and doxorubicin (Dox) were incubat ed with Wi-38 cells for 72 h after 24 h for cell attachment. MTT method” for “MTT method”, “Instat software. […]” for “Instat software.”

For series [5], the system named is myeloid leukaemia cell line (NFS-60). Briefly: MTT anticancer activity, NFS-60. The series is classed as cell-based. The conditions noted are these: NFS-60, 72 h, MTT; mean ± SEM. The method, then:
as §1, §2, §3, §4, §5, §6

As for `N#Cc1c(-c2cc3ccccc3nc2N2CCCCC2)cc(-c2cccc(O)c2)nc1S` [6d, 6-(3-Hydroxyphenyl)-4-(2-(piperidin-1-yl)quinolin-3-yl)-2-mercaptopyridine-3-carbonitrile], the melting point was above 300 °C. The compound also showed an IC50 in series [1] of 135 ± 11 nM. Further, in series [2], the IC50 stood at 70.8 ± 3 nM and the “Caco-2 SI” value was found to be 10.720. The compound further had an IC50 in series [3] of 87.6 ± 2 nM. In series [4], the EC50 was determined as 759 ± 25 nM and the “Wi-38 EC100” value was 0.212 ± 0.009 µM. In addition, the IC50 in series [5] stood at 217 ± 22 nM.
For `CC(=O)Oc1cccc(-c2cc(-c3cc4ccccc4nc3N3CCOCC3)c(C#N)c(=O)[nH]2)c1` [7a, 3-(5-Cyano-4-(2-morpholin-4-yl-quinolin-3-yl)-6-oxo-1,6-dihydropyridin-2-yl)phenyl acetate], the melting point is above 300 °C. The compound also returned an IC50 in series [1] of 140 ± 20 nM. Besides, in series [2], it took 79.9 ± 3 nM to reach half-maximal inhibition (IC50) and the “Caco-2 SI” value is recorded as 2.178. In series [3], this compound yielded an IC50 of 49.5 ± 0.1 nM. In addition, in series [4], the response was half-maximal at 174 ± 5 nM (EC50) and the “Wi-38 EC100” value stood at 0.102 ± 0.01 µM. The IC50 in series [5] stood at 145 ± 2 nM.
`CC(=O)Oc1cccc(-c2cc(-c3cc4cc(Cl)ccc4nc3N3CCOCC3)c(C#N)c(=O)[nH]2)c1` [7b, 3-(4-(6-Chloro-2-morpholin-4-yl-quinolin-3-yl)-5-cyano-6-oxo-1,6-dihydropyridin-2-yl)phenyl acetate] showed a melting point of 189 to 190 °C. The IC50 in series [1] turned out to be 135 ± 2 nM. Moreover, in series [2], the IC50 is 119 ± 16 nM and the “Caco-2 SI” value is 1.176. In series [3], half-maximal inhibition (IC50) was put at 101.6 ± 1 nM. In series [4], the midpoint of the response, the EC50, lay at 140 ± 9 nM and the “Wi-38 EC100” value was 0.110 ± 0.002 µM. Further, in series [5], half-maximal inhibition (IC50) was put at 107 ± 1 nM.
Turning to `COc1ccc2nc(N3CCOCC3)c(-c3cc(-c4cccc(OC(C)=O)c4)[nH]c(=O)c3C#N)cc2c1` [7c, 3-(5-Cyano-4-(6-methoxy-2-morpholin-4-yl-quinolin-3-yl)-6-oxo-1,6-dihydropyridin-2-yl)phenyl acetate], the melting point is above 300 °C. This compound also registered an IC50 in series [1] of 101 ± 1 nM. Also, in series [2], the IC50 was 127 ± 14 nM and the “Caco-2 SI” value was determined as 1.079. This compound also registered a half-maximal inhibitory concentration (IC50) in series [3] of 142.1 ± 1 nM. For the same compound, in series [4], the EC50 was 137 ± 0.1 nM and the “Wi-38 EC100” value turned out to be 0.094 ± 0.005 µM. In series [5], this compound returned an IC50 of 153 ± 34 nM.
On to `N#Cc1c(-c2cc3ccccc3nc2N2CCOCC2)cc(-c2cccc(O)c2)nc1OCC(=O)O` [9a, 2-((3-Cyano-6-(3-hydroxyphenyl)-4-(2-morpholin-4-yl-quinolin-3-yl)pyridin-2-yl)oxy)acetic acid], for which the melting point was 179 to 180 °C. Further, in series [1], the IC50 was 84.7 ± 3 nM. In series [2], the midpoint of inhibition, the IC50, lay at 73.9 ± 0.1 nM and the “Caco-2 SI” value was 2.152. Besides, the IC50 in series [3] turned out to be 78.2 ± 2 nM. In addition, in series [4], a half-maximal response (EC50) required 159 ± 4 nM and the “Wi-38 EC100” value turned out to be 0.0254 ± 0.002 µM. Also, the IC50 in series [5] came to 92.3 ± 0.1 nM.
With `N#Cc1c(-c2cc3cc(Cl)ccc3nc2N2CCOCC2)cc(-c2cccc(O)c2)nc1OCC(=O)O` [9b, 2-((4-(6-Chloro-2-morpholin-4-yl-quinolin-3-yl)-3-cyano-6-(3-hydroxyphenyl)pyridin-2-yl)oxy)acetic acid], the melting point fell in the range of 279 to 280 °C. Moreover, 97.3 ± 8 nM corresponded to half-maximal inhibition in series [1] (IC50). In series [2], the IC50 came to 55.2 ± 2 nM and the “Caco-2 SI” value is 3.098. In series [3], this compound showed a concentration for half-maximal inhibition (IC50) of 45.4 nM. In addition, in series [4], the midpoint of the response, the EC50, lay at 171 ± 1 nM and the “Wi-38 EC100” value was found to be 0.134 ± 0.01 µM. This compound showed an IC50 in series [5] of 380 ± 10 nM.
`COc1ccc2nc(N3CCOCC3)c(-c3cc(-c4cccc(O)c4)nc(OCC(=O)O)c3C#N)cc2c1` [9c, 2-((3-Cyano-6-(3-hydroxyphenyl)-4-(6-methoxy-2-morpholin-4-yl-quinolin-3-yl)pyridin-2-yl)oxy)acetic acid]: the melting point lay in the range of 274 to 275 °C. The same compound registered an IC50 in series [1] of 46.2 ± 2 nM. In addition, in series [2], the IC50 worked out at 52.6 ± 0.1 nM and the “Caco-2 SI” value is recorded as 5.247. In series [3], this compound registered an IC50 of 86.7 ± 3 nM. In series [4], the EC50 stood at 276 ± 2 nM and the “Wi-38 EC100” value stood at 0.0754 ± 0.003 µM. The compound further gave an IC50 in series [5] of 96.1 ± 2 nM.
For `N#Cc1c(-c2cc3ccccc3nc2N2CCOCC2)cc(-c2cccc(O)c2)nc1OCC(=O)Nc1ccccc1` [11a, 2-((3-Cyano-6-(3-hydroxyphenyl)-4-(2-morpholin-4-yl-quinolin-3-yl)pyridin-2-yl)oxy)-N-phenylacetamide], the melting point is 243 to 245 °C. In addition, the IC50 in series [1] amounted to 158 ± 26 nM. In series [2], half-maximal inhibition (IC50) required 158 ± 2 nM and the “Caco-2 SI” value is 0.911. In series [3], this compound gave an IC50 of 336 ± 22 nM. Moreover, in series [4], the EC50 was determined as 144 ± 1 nM and the “Wi-38 EC100” value worked out at 0.0906 ± 0.012 µM. Further, the midpoint of inhibition in series [5], the IC50, lay at 126 ± 6 nM.
Turning to `N#Cc1c(-c2cc3ccccc3nc2N2CCOCC2)cc(-c2cccc(O)c2)nc1OCC(=O)Nc1ccc(Cl)cc1` [11b, N-(4-Chlorophenyl)-2-((3-cyano-6-(3-hydroxyphenyl)-4-(2-morpholin-4-yl-quinolin-3-yl)pyridin-2-yl)oxy)acetamide], the melting point fell in the range of 279 to 280 °C. In series [1], this compound came in with an IC50 of 130 ± 11 nM. In addition, in series [2], the IC50 stood at 63 ± 2 nM and the “Caco-2 SI” value was determined as 5.349. For the same compound, the IC50 in series [3] stood at 71.5 ± 1 nM. In series [4], the response was half-maximal at 337 ± 24 nM (EC50) and the “Wi-38 EC100” value is 0.00232 ± 0.001 µM. The same compound displayed an IC50 in series [5] of 181 ± 7 nM.
In turn, `COc1ccc(NC(=O)COc2nc(-c3cccc(O)c3)cc(-c3cc4ccccc4nc3N3CCOCC3)c2C#N)cc1` [11c] yielded a melting point of 268 to 270 °C. In addition, in series [1], the IC50 was found to be 159 ± 7 nM. Further, in series [2], the IC50 came out at 100 ± 14 nM and the “Caco-2 SI” value was determined as 1.010. Besides, half-maximal inhibition in series [3] (IC50) required 281 ± 7 nM. Moreover, in series [4], a half-maximal response (EC50) required 101 ± 1 nM and the “Wi-38 EC100” value was 0.0483 ± 0.004 µM. In addition, half-maximal inhibition in series [5] (IC50) was put at 110 ± 2 nM.

Broadly, the IC50 is the point on the concentration scale where inhibition reaches its midpoint. Low values mean higher potency, high ones lower potency. What is called EC50 is the concentration needed to bring the measured effect to its halfway point. The term melting point denotes the temperature of the solid-liquid transition.
